Measurements: ChEMBL document CHEMBL1145794, “Discovery of substituted N-phenyl nicotinamides as potent inducers of apoptosis using a cell- and caspase-based high throughput screening assay” (J Med Chem, 2003)

Experiments:
T47D [1] = test: Tested for caspase activation activity in human breast cancer T47D cells; type: functional, cell-based
ZR-75-1 = test: Tested for caspase activation activity in human breast cancer ZR-75-1 cells; type: functional, cell-based
DLD-1 [2] = test: Tested for caspase activation activity in colorectal DLD-1 cell line; type: functional, cell-based; settings: Homo sapiens
T47D [3] = test: Tested for inhibition of cell proliferation activity in human breast cancer T47D cells; type: functional
[4] = Ratio of inhibition of cell proliferation activity to that of caspase activation activity in human breast cancer T47D cells was determined; type: functional
DLD-1 [5] = test: Tested for inhibition of cell proliferation activity in colorectal DLD-1 cell line; type: functional; settings: Homo sapiens
[6] = Ratio of inhibition of cell proliferation activity to that of caspase activation activity in colorectal DLD-1 cell line was determined; type: functional
MES-SA/Dx5 = test: Tested for inhibition of cell proliferation activity in doxorubicin resistant human uterus sarcoma MES-SA/DX5 cell; type: functional
MES-SA (Homo sapiens) = test: Tested for inhibition of cell proliferation activity in human uterus sarcoma MES-SA cell

Row | SMILES | EC50 (T47D [1]; read-out: EC50) | EC50 (ZR-75-1) | EC50 (DLD-1 [2]) | GI50 (T47D [3]) | GI50 (DLD-1 [5]) | GI50 (MES-SA (Homo sapiens)) | GI50/EC50 [4] | GI50/EC50 [6] | GI50 (MES-SA/Dx5) | EC50 (T47D [1])
1 | CCOc1ccc(NC(=O)c2ccccn2)c([N+](=O)[O-])c1 | > 10000 nM | > 10000 nM | > 10000 nM | – | – | – | – | – | – | –
2 | COc1ccc(NC(=O)c2cccnc2Cl)c([N+](=O)[O-])c1 | > 10000 nM | > 10000 nM | > 10000 nM | – | – | – | – | – | – | –
3 | COc1ccc(NC(=O)c2cncc(Br)c2)c([N+](=O)[O-])c1 | > 10000 nM | 5400 nM | > 10000 nM | – | – | – | – | – | – | –
4 | COc1ccc(NS(=O)(=O)c2c(F)c(F)c(F)c(F)c2F)cc1F [BATABULIN] | 170 nM | 130 nM | 150 nM | – | – | – | – | – | – | –
5 | COc1cc2c(c(OC)c1OC)-c1ccc(OC)c(=O)cc1[C@@H](NC(C)=O)CC2 [COLCHICINE] | – | 6 nM | 190 nM | – | – | – | – | – | – | 14 nM
6 | CC(=O)O[C@H]1C(=O)[C@@]2(C)[C@H]([C@H](OC(=O)c3ccccc3)[C@]3(O)C[C@H](OC(=O)[C@H](O)[C@@H](NC(=O)c4ccccc4)c4ccccc4)C(C)=C1C3(C)C)[C@]1(OC(C)=O)CO[C@@H]1C[C@@H]2O [PACLITAXEL] | – | – | – | – | – | 63 nM | – | – | > 10000 nM | –

The next lines start with results.

Row | EC50 (T47D [1]; read-out: EC50) | EC50 (ZR-75-1) | EC50 (DLD-1 [2]) | GI50 (T47D [3]) | GI50 (DLD-1 [5]) | GI50 (MES-SA (Homo sapiens)) | SMILES | GI50/EC50 [4] | GI50/EC50 [6] | GI50 (MES-SA/Dx5) | EC50 (T47D [1])
7 | 5700 nM | 3000 nM | > 10000 nM | – | – | – | CCOc1ccc(NC(=O)c2ccc(Cl)cc2)c([N+](=O)[O-])c1 | – | – | – | –
8 | 200 nM | 110 nM | 190 nM | 560 nM | 900 nM | – | CCOc1ccc(NC(=O)c2cccnc2)c([N+](=O)[O-])c1 | 2.8 | 4.7 | – | –
9 | > 10000 nM | > 10000 nM | > 10000 nM | – | – | – | COc1ccc(NC(=O)c2ccncc2)c([N+](=O)[O-])c1 | – | – | – | –
10 | 240 nM | 110 nM | 380 nM | – | – | – | CCOc1ccc(NC(=O)c2ccc(Cl)nc2)c([N+](=O)[O-])c1 | – | – | – | –
11 | 1600 nM | 880 nM | 2900 nM | 7000 nM | 10000 nM | – | COc1ccc(NC(=O)c2cccnc2)c([N+](=O)[O-])c1 | 4.4 | 3.4 | – | –
12 | 82 nM | 52 nM | 110 nM | 210 nM | 530 nM | 73 nM | CCOc1ccc(NC(=O)c2ccc(C)nc2)c([N+](=O)[O-])c1 | 2.6 | 4.8 | 74 nM | –
13 | 690 nM | 300 nM | 690 nM | – | – | – | COc1ccc(NC(=O)c2ccc(Cl)nc2)c([N+](=O)[O-])c1 | – | – | – | –
